# Experimental data as given in US7816319B2, “Methods and products for manipulating uncoupling protein expression” (University of Vermont and State Agricultural College, priority 1999, dated 2010).
# Assays:
# [1] = metabolite formed from 5-FU; cited from earlier work
# [2] = 5-FU that is taken up by the cell; cited from earlier work
# L1210 [3] = assay: Fas expression after treatment with staurosporin or adriamycin; format: cell-based
# Text: (§1) 4. Treatment of L1210 DDP cells with staurosporin restores Fas expression and susceptibility to drug-induced apoptosis: L1210, but not L1210 DDP, undergo apoptotic cell death. We treated L1210 or L1210 DDP cells with the staurosporin, which inhibits protein kinase C and increases mitochondrial membrane potential, or an anti-cancer agent to which both cells are sensitive, adriamycin. Fas expression was increased or induced on both L1210 and L1210 DDP, respectively, in the presence of staurosporin or adriamycin. The L1210 DDP changed morphologically and began to divide rapidly, changes which appeared to correspond with a reversion back to the phenotype of the L1210 cells.
# L1210 DDP = assay: as above; format: cell-based
# Text: as §1
# L1210/DDP = assay: Analysis of DNA fragments after methotrexate treatment; format: cell-based; settings: 10^-8 M methotrexate, 24 hours
# Procedure: (§2) Additionally, L1210 and L1210/DDP cells were treated with 10^-8 M methotrexate for 24 hours. […] The forward scatter low populations took up ethidium bromide differentially. The L1210 cells took up a moderate amount. […] This latter phenotype—loss in forward scatter and membrane permeability with no “DNA laddering”—is the hall mark of oncosis.
# L1210 [4] = assay: as above; format: cell-based; settings: 10^-8 M methotrexate, 24 hours
# Procedure: as §2
# [5] = test system: Fas deficient lymphocytes; assay: Methotrexate-induced apoptosis in splenic lymphocytes, viability by flow cytometry and trypan blue; format: cell-based, mice; settings: splenocytes of C57BL/6 lpr or gld vs wild type; 5×10^−8 M methotrexate, 18 or 32 hours
# Procedure: 8. Fas Deficient Lymphocytes are also drug resistant to methotrexate: We isolated splenic lymphocytes from aged-matched wild type C57BL/6 mice and C57BL6.1pr and C57BL.gld. Splenocytes from C57BL/6 lpr or gld animals were isolated, red cells depleted, and single cell suspensions prepared. Cells were cultured in the absence or presence of 5×10^−8 M methotrexate for 18 or 32 hours. Cells were harvested and viability was determined by flow cytometric analysis and confirmed with trypan blue exclusion.
# B16 melanoma cells [6] = settings: increasing concentrations of sodium acetate
# Procedure: Again cells were cultured in the presence of varying concentration of sodium acetate.
# L1210 [7] = settings: graded concentrations of sodium acetate
# Procedure: (§3) Sodium Acetate as a mitochondrial modifying agent was examined. L1210 or L1210DDP cells were cultured in the presence of graded concentrations of sodium acetate in the medium. Cells were stained with Jo2.2, a fluorescein conjugated anti-Fas antibody, or an isotype control. Cell surface staining was measured flow cytometrically. The percentage of mean fluorescence intensity over the isotype control was plotted.
# L1210DDP [8] = settings: graded concentrations of sodium acetate
# Procedure: as §3
# B16 melanoma cells [9] = settings: increasing concentrations of sodium acetate; remark: listed apart in the source
# Procedure: B16 cells were cultured in the in the presence of different concentrations of sodium acetate and Fas expression was measured.
# B16 cells also were cultured in the presence of different concentrations of sodium acetate and Fas expression was measured.
# L1210 [10] = test system: L1210
# Text: (§4) The effects of acetate on susceptibility to Fas-dependent cell death were also examined.
# L1210DDP [11] = test system: L1210DDP
# Text: as §4
# MDR cells = assay: Inhibition of lysosomal UCP translocation; format: cell-based
# Procedure: MDR cells, which are plasma membrane UCP negative and lysosomal UCP positive were treated with tunicamycin. […] These same cells were treated with tunicamycin and an-anti-UCP2 antibody.
molecule,measurement,setting,value
"NCC(F)C(=O)O (stereo not drawn) [2-fluoro-β-alanine (FBAL), 2-fluoro-β-alanine]",toxicity,[1],neurotoxic and cardiotoxic
"O=c1[nH]cc(F)c(=O)[nH]1 [5-FU, 5-Fluorouracil]",half-life in vivo,[2],about 18 minutes
COc1cccc2c1C(=O)c1c(O)c3c(c(O)c1C2=O)C[C@@](O)(C(=O)CO)C[C@@H]3O[C@H]1C[C@H](N)[C@H](O)[C@H](C)O1 [adriamycin],Fas expression,L1210 [3],increased
same,Fas expression,L1210 DDP,induced
CN(Cc1cnc2nc(N)nc(N)c2n1)c1ccc(C(=O)N[C@@H](CCC(=O)O)C(=O)O)cc1 [methotrexate],DNA laddering (nucleosome sized fragments),L1210/DDP,did not
same,DNA laddering (nucleosome sized fragments),L1210 [4],produced a ladder of nucleosome sized fragments indicative of apoptosis
same,susceptibility to methotrexate-induced apoptosis,[5],decreased susceptibility
CC(=O)[O-].[Na+] [sodium acetate],glucose oxidation,B16 melanoma cells [6],decreased
same,glucose utilization,B16 melanoma cells [6],decreased
same,cell surface Fas expression,L1210 [7],increases cell surface Fas expression
same,cell surface Fas expression,L1210DDP [8],increases cell surface Fas expression
same,levels of cell surface Fas,B16 melanoma cells [9]; non-permeabilized B16,increased
same,levels of intracellular Fas,B16 melanoma cells [9]; permeabilized B16,declined
same,susceptibility to Fas-dependent cell death,L1210 [10],resulted in susceptibility to Fas-dependent cell death
same,susceptibility to Fas-dependent cell death,L1210DDP [11],resulted in susceptibility to Fas-dependent cell death
CN[C@@H]1C[C@H]2O[C@@](C)([C@@H]1OC)n1c3ccccc3c3c4c(c5c6ccccc6n2c5c31)C(=O)NC4 [staurosporin],Fas expression,L1210 [3],increased
same,Fas expression,L1210 DDP,induced
tunicamycin,localization of intracellular UCP,MDR cells,shift in the intracellular UCP from the lysosome and mitochondria to the plasma membrane
